Data set [1] is filed under the species Rattus norvegicus. Put plainly: Half-life in vitro in rat plasma; No detectable degradation over 2 hr; no detectable degradation over 2 hours. The data set is classed as ADME.
Data set [2] relates to Caco-2. Put plainly: Permeability coefficient in Caco-2 cell line monolayers was tested. Type of data set: functional, Homo sapiens. (In general: Caco-2 monolayers are a common model of the intestinal barrier.)
Data set [3] can be described thus: Half-life in vitro in rat plasma. Type of data set: ADME.
A short description of data set [4]: Half-life in vitro in pig liver. The data set is classed as ADME, tissue-based, Sus scrofa.

Molecules are shown by their SMILES.

The results in this text go back to ChEMBL document CHEMBL1127764, “An efficient method for the synthesis of guanidino prodrugs” (Bioorg Med Chem Lett, 1994).

In general, half-life refers to the time in which the quantity being followed falls by half. Read a low half-life as rapid decline.

For `N=C(N)NCc1ccccc1`, the T1/2 entry in data set [1] is recorded as “Stable”. The same compound displayed a Pc in data set [2] of 22.4 nm/s.
`CC(C)(C)C(=O)OCOC(=O)/N=C(/NCc1ccccc1)NC(=O)OCOC(=O)C(C)(C)C` returned a Pc in data set [2] of 36.9 nm/s. In addition, the half-life in data set [3] came to 1.12 min.
In turn, `NC(=O)CCCCCCN=C(N)N` yielded a half-life in data set [4] below 5 min.
Take `O=C(/N=C(/NCc1ccccc1)NC(=O)OCc1ccccc1)OCc1ccccc1`: the Pc in data set [2] came out at 5.1 nm/s. Moreover, the half-life in data set [3] turned out to be 12.5 min.
In the case of `O=C(Cc1ccccc1)OCOC(=O)/N=C(/NCc1ccccc1)NC(=O)OCOC(=O)Cc1ccccc1`, the Pc in data set [2] was found to be 85.5 nm/s. In addition, the half-life in data set [3] turned out to be 0.13 min.
For the compound `O=C(/N=C(/NCc1ccccc1)NC(=O)Oc1ccccc1)Oc1ccccc1`, the Pc in data set [2] was 64.5 nm/s. Also, the half-life in data set [3] worked out at 0.46 min.
